Patent US20070203141A1 (BOEHRINGER INGELHEIM PHARMACEUTICALS, INC., priority 2001, published 2007)
Where “and” joins values, the source holds several entries; their conditions need not be identical. Equal values may be shown once.

What was measured:
[1] = Twice daily for 14 days Phase I study, pharmacokinetics; format: in vivo; conditions: human
Protocol: (§1) This study was a Phase I, randomized, double-blind, placebo-controlled, multiple-dose trial to investigate the safety and pharmacokinetics of 15 or 30 mg of an orally available p38MAPK inhibitor administered twice daily compared to placebo for 14 days. Subjects were 49 healthy males, 16 per treatment group (one subject on placebo was discontinued). […] Based on preliminary analysis of this study, 9 of 48 subjects had transaminase values above the upper limit of normal (UNL), 2 in the placebo, 3 in the 15 mg dose group and 4 in 30 mg dose group. Three subjects experienced ALT rises 2-3 fold greater than UNL, one in each dose group. […] There were no relevant changes in other laboratory studies, EKGs or physical examinations.

[2] = system: PMN (neutrophil) activation in human whole blood; assay: Once daily for 7 days study, ex vivo TNFα or fMLP induced activation state of PMN (Mac-1/Lselectin ratio); format: in vivo
Protocol: (§2) This was a randomized, double-blind, placebo-controlled (2:6 ratio per dose group), multiple dose (20, 50 and 150 mg) study to assess pharmacokinetics, pharmacodynamics, safety and tolerability using a tablet formulation administered once a day for one week. Safety was determined by adverse events, laboratory tests, and physical examination. Kinetics were assessed by measuring plasma levels of drug and pharmacodynamics was assessed ex vivo by the effects of LPS induced production of TNFα, and the TNFα or fMLP induced activation state of PMN in human whole blood as measured by the ratio of Mac-1/Lselectin cell surface expression. Twenty-four healthy male volunteers (mean age 30 years, mean weight 76 kg) were studied. […] Two subjects receiving the 150 mg dose developed acne. There were no clinically significant changes in laboratory assessments except for a dose related, reversible rise in AST and ALT. […] This transaminase increase was not associated with changes in other liver function tests, nor was it associated with any liver related signs or symptoms. […] Steady-state was attained within 2 days.

TNFα production [3] = assay: Mouse model of LPS-induced TNFα production; format: in vivo; conditions: dosed orally 30 minutes prior to LPS challenge
[4] = Phase 1 single dose trial, pharmacokinetics; format: in vivo; conditions: human, 4 mg single dose
Protocol: (§3) Thus, 4 mg would be efficacious in inhibiting TNFα production.

TNFα production [5] = assay: Human endotoxemia trial, LPS-induced TNFα production; format: in vivo; conditions: for Inhibition of LPS-induced TNFα production: human, vs placebo
Source text: Intravenous administration of endotoxin represents a safe, well-defined model of acute inflammation in humans. It is also an excellent tool to study the mechanisms contributing to inflammatory responses in man in vivo.
The endotoxin (LPS) was obtained from: Escherichia coli LPS (lot G; United States Pharmacopoeial Convention, Rockville, Md. USA).
Percent inhibition was obtained by calculating the percent difference between the median peak plasma pharmacodynamic endpoint concentrations of the placebo group and the maximum endpoint concentration achieved by each individual. […] [formula]

plasma TNFα production = assay: Cynomolgus monkey endotoxin model, IV dosing just prior to LPS challenge; format: in vivo; conditions: vs vehicle
Source text: (§4) As a surrogate model for man, we developed an endotoxin model in the cynomolgus monkey to examine the effect of p38 MAPK inhibitors on modulating TNFα production.

[6] = Twice daily for 14 days Phase I study, safety; format: in vivo, human; conditions: for Subjects with transaminase values above the upper limit of normal: preliminary analysis, placebo 2
Protocol: as §1

[7] = Once daily for 7 days multiple dose study, safety and tolerability; format: in vivo, human
Protocol: Transaminase levels peaked 2 to 4 days after the end of drug therapy on day 7 with resolution over the next 7 to 14 days.
as §2

[8] = system: TNFα release, human whole blood; assay: TNFα release from LPS stimulated human whole blood; format: cell-based
[9] = Once daily for 7 days multiple dose study, pharmacokinetics; format: in vivo; conditions: human
Protocol: as §2

TNFα [10] = assay: Once daily for 7 days study, ex vivo LPS induced production of TNFα in human whole blood; conditions: any of the doses used (20, 50, 150 mg once daily for 7 days)
Protocol: as §2

TNFα [11] = assay: Single dose rising trial (U00-1627), ex vivo TNFα inhibition; format: in vivo, human; conditions: single dose rising trial U00-1627
Protocol: as §3
This discrepancy between in vivo and ex vivo and in vivo and in vitro was also observed in cynomolgus monkeys (U99-3145).

[12] = system: TNFα release, monkey whole blood; assay: TNFα release from LPS stimulated monkey whole blood; format: cell-based
Source text: as §4

TNFα production [13] = assay: Cynomolgus monkey endotoxin model, duration of action, PO chewable tablets 12 hours prior to LPS; format: in vivo; conditions: for Inhibition of TNFα production: vs placebo; for Peak plasma level: cynomolgus monkey
Source text: as §4

[14] = system: TNFα release from LPS stimulated human PBMC; assay: TNFα release from LPS stimulated human PBMC; format: cell-based
[15] = 150 mg once daily for 7 days, all 6 subjects

Cc1ccc(-n2nc(C(C)(C)C)cc2NC(=O)Nc2ccc(OCCN3CCOCC3)c3ccccc23)cc1 [BIRB 796 BS]
AUC0-12 (mean±SD) on day 14 ([1]; 15 mg twice daily): 334 ± 145 ng·h/mL | Cmax (mean±SD) on day 14 ([1]; 15 mg twice daily): 109 ± 51 ng/mL | AUC0-12 (mean±SD) on day 14 ([1]; 30 mg twice daily): 659 ± 449 ng·h/mL | Cmax (mean±SD) on day 14 ([1]; 30 mg twice daily): 208 ± 109 ng/mL | Mean elimination half-life ([1]; 15 or 30 mg twice daily for 14 days): 7.3 h | Ex vivo neutrophil activation ([2]; 4 hours post dosing): dose dependent inhibition | Ex vivo neutrophil activation ([2]; 24 hours post dosing, various dose levels): mixed pattern of neutrophil inhibition and activation | ED50, inhibition of LPS-induced TNFα (TNFα production [3]): approximately 10 mg/kg | Cmax [4]: 23.8 ± 5.71 ng/mL | EC50 for inhibiting TNFα production in vivo (TNFα production [5]; Emax model, plasma concentration ten minutes prior to LPS challenge): 0.02372 µg/mL | Emax (% Inhibition), TNFα (TNFα production [5]; Emax model, pre-LPS challenge plasma concentration vs percent inhibition of peak TNFα): 95% and 95.34% | Inhibition of LPS-induced TNFα production (TNFα production [5]; 50 mg orally 3 hours prior to LPS challenge): 88% | Inhibition of LPS-induced TNFα production (TNFα production [5]; 600 mg orally 3 hours prior to LPS challenge): 97% | Inhibition of plasma TNFα production (plasma TNFα production; 0.3 mg/kg IV just prior to LPS 400 ng/kg IV): not significantly inhibited | Inhibition of plasma TNFα production (plasma TNFα production; 1 mg/kg IV just prior to LPS 400 ng/kg IV, p<0.005): 85% | Inhibition of plasma TNFα production (plasma TNFα production; 3 mg/kg IV just prior to LPS 400 ng/kg IV, p<0.005): 90% | Subjects with transaminase values above the upper limit of normal ([6]; 15 mg twice daily group (16 per group)): 3 subjects | Subjects with transaminase values above the upper limit of normal ([6]; 30 mg twice daily group (16 per group)): 4 subjects | Tolerability ([6]; doses up to 30 mg twice daily for two weeks): well tolerated | Change in γ-GT ([7]; 150 mg daily for seven days): small increase in γ-GT | Elevations in AST and ALT ([7]; 150 mg daily for seven days): moderate elevations in AST and ALT | Tolerability ([7]; 150 mg for seven days): not considered well tolerated | Rise in ALT above the upper limit of normal [7, 15]: ≤ 3.5 fold | Rise in AST above the upper limit of normal [7, 15]: ≤ 2 fold | Tolerability ([7]; doses up to 50 mg (20 and 50 mg) daily for 7 days): well tolerated | IC50 [8]: 800 nM | Day 7 mean AUC0-24 ([9]; 20 mg once daily): 364 ng·h/mL | Day 7 mean Cmax ([9]; 20 mg once daily): 116 ng/mL | Day 7 mean AUC0-24 ([9]; 50 mg once daily): 1324 ng·h/mL | Day 7 mean Cmax ([9]; 50 mg once daily): 308 ng/mL | Day 7 mean AUC0-24 ([9]; 150 mg once daily): 5924 ng·h/mL | Day 7 mean Cmax ([9]; 150 mg once daily): 1108 ng/mL | Time to steady-state ([9]; once daily dosing): ≤ 2 days | Ex vivo inhibition of TNFα (TNFα [10]): No inhibition | Ex vivo inhibition of TNFα production (TNFα [11]; 50 mg): no inhibition was observed | EC50 calculated from ex-vivo inhibition of TNFα (TNFα [11]): 1.228 µg/mL | IC50 [12]: 4000 nM | Inhibition of TNFα production (TNFα production [13]; 1 mg/kg PO 12 hours prior to IV LPS, NS): 44% | Inhibition of TNFα production (TNFα production [13]; 3 mg/kg PO 12 hours prior to IV LPS, p<0.05): 61% | Inhibition of TNFα production (TNFα production [13]; 20 mg/kg PO 12 hours prior to IV LPS, p<0.01): 84% | Peak plasma level (TNFα production [13]; 1 mg/kg PO chewable tablets): 0.003 µM | Peak plasma level (TNFα production [13]; 3 mg/kg PO chewable tablets): 0.02 µM | Peak plasma level (TNFα production [13]; 20 mg/kg PO chewable tablets): 1.4 µM | IC50 [14]: 21 nM
